{"source": "PubChem BioAssay (NCI)", "assay_in_all_cases": "DTP human tumour cell line panel, 48 h", "key": {"[1]": {"tested_on": "786-0 renal"}, "[2]": {"tested_on": "HS 578T breast"}, "[3]": {"tested_on": "K-562 leukemia"}, "[4]": {"tested_on": "MALME-3M melanoma"}, "[5]": {"tested_on": "MOLT-4 leukemia"}, "[6]": {"tested_on": "OVCAR-3 ovarian"}, "[7]": {"tested_on": "OVCAR-5 ovarian"}, "[8]": {"tested_on": "RXF 393 renal"}, "[9]": {"tested_on": "SN12C renal"}, "[10]": {"tested_on": "UACC-257 melanoma"}}, "note": "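1) Cells in 96-well plates. 2) Compound, 48 h, 5 concentrations. 3) Linear interpolation between surrounding doses. 4) Unreached endpoint = highest concentration. The concentration for 50% growth inhibition is given as GI50. TGI: total growth inhibition.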", "data": [{"smiles": "C[C@@H](Oc1cc(-n2cnc3ccc(OCC4CCN(C)CC4)cc32)sc1C(N)=O)c1ccccc1Cl", "values": [{"measurement": "GI50", "setting": "[1]", "result": 0.315, "unit": "µM"}, {"measurement": "TGI", "setting": "[1]", "result": 3.92, "unit": "µM"}, {"measurement": "GI50", "setting": "[2]", "result": 0.0759, "unit": "µM"}, {"measurement": "TGI", "setting": "[2]", "result": 0.502, "unit": "µM"}, {"measurement": "GI50", "setting": "[3]", "result": 0.0437, "unit": "µM"}, {"measurement": "TGI", "setting": "[3]", "result": 3.34, "unit": "µM"}, {"measurement": "GI50", "setting": "[4]", "result": 2.93, "unit": "µM"}, {"measurement": "TGI", "setting": "[4]", "result": 6.95, "unit": "µM"}, {"measurement": "GI50", "setting": "[5]", "result": 0.0585, "unit": "µM"}, {"measurement": "TGI", "setting": "[5]", "result": 3.13, "unit": "µM"}, {"measurement": "GI50", "setting": "[6]", "result": 0.0577, "unit": "µM"}, {"measurement": "TGI", "setting": "[6]", "result": 2.97, "unit": "µM"}, {"measurement": "GI50", "setting": "[7]", "result": 0.113, "unit": "µM"}, {"measurement": "TGI", "setting": "[7]", "result": 4.19, "unit": "µM"}, {"measurement": "GI50", "setting": "[8]", "result": 0.0546, "unit": "µM"}, {"measurement": "TGI", "setting": "[8]", "result": 2.76, "unit": "µM"}, {"measurement": "GI50", "setting": "[9]", "result": 0.344, "unit": "µM"}, {"measurement": "TGI", "setting": "[9]", "result": 4.52, "unit": "µM"}, {"measurement": "GI50", "setting": "[10]", "result": 0.117, "unit": "µM"}, {"measurement": "TGI", "setting": "[10]", "result": 4.99, "unit": "µM"}]}, {"smiles": "NC(=O)c1sc(-n2cnc3ccc(C(F)(F)F)cc32)cc1OCc1ccccc1Br", "values": [{"measurement": "GI50", "setting": "[1]", "result": 5.31, "unit": "µM"}, {"measurement": "TGI", "setting": "[1]", "result": "> 25", "unit": "µM"}, {"measurement": "GI50", "setting": "[2]", "result": 4.22, "unit": "µM"}, {"measurement": "TGI", "setting": "[2]", "result": "> 22.8", "unit": "µM"}, {"measurement": "GI50", "setting": "[3]", "result": 1.06, "unit": "µM"}, {"measurement": "TGI", "setting": "[3]", "result": "> 25", "unit": "µM"}, {"measurement": "GI50", "setting": "[4]", "result": 9.02, "unit": "µM"}, {"measurement": "TGI", "setting": "[4]", "result": "> 25", "unit": "µM"}, {"measurement": "GI50", "setting": "[5]", "result": 0.965, "unit": "µM"}, {"measurement": "TGI", "setting": "[5]", "result": "> 25", "unit": "µM"}, {"measurement": "GI50", "setting": "[6]", "result": 0.762, "unit": "µM"}, {"measurement": "TGI", "setting": "[6]", "result": 2.55, "unit": "µM"}, {"measurement": "GI50", "setting": "[7]", "result": 1.46, "unit": "µM"}, {"measurement": "TGI", "setting": "[7]", "result": "> 19.2", "unit": "µM"}, {"measurement": "GI50", "setting": "[8]", "result": 0.566, "unit": "µM"}, {"measurement": "TGI", "setting": "[8]", "result": 1.94, "unit": "µM"}, {"measurement": "GI50", "setting": "[9]", "result": 3.81, "unit": "µM"}, {"measurement": "TGI", "setting": "[9]", "result": "> 25", "unit": "µM"}, {"measurement": "GI50", "setting": "[10]", "result": 2.74, "unit": "µM"}, {"measurement": "TGI", "setting": "[10]", "result": "> 25", "unit": "µM"}]}, {"smiles": "COc1ccc(C(=O)/C=C/c2cc(-c3ccc4c(c3)OCO4)n[nH]2)cc1OC", "values": [{"measurement": "GI50", "setting": "[1]", "result": 3.12, "unit": "µM"}, {"measurement": "TGI", "setting": "[1]", "result": 11.4, "unit": "µM"}, {"measurement": "GI50", "setting": "[2]", "result": 2.69, "unit": "µM"}, {"measurement": "TGI", "setting": "[2]", "result": 8.21, "unit": "µM"}, {"measurement": "GI50", "setting": "[3]", "result": 2.47, "unit": "µM"}, {"measurement": "TGI", "setting": "[3]", "result": 16.7, "unit": "µM"}, {"measurement": "GI50", "setting": "[4]", "result": 7.32, "unit": "µM"}, {"measurement": "TGI", "setting": "[4]", "result": 22.8, "unit": "µM"}, {"measurement": "GI50", "setting": "[5]", "result": 3, "unit": "µM"}, {"measurement": "TGI", "setting": "[5]", "result": 10.3, "unit": "µM"}, {"measurement": "GI50", "setting": "[6]", "result": 2.02, "unit": "µM"}, {"measurement": "TGI", "setting": "[6]", "result": 4.61, "unit": "µM"}, {"measurement": "GI50", "setting": "[7]", "result": 3.36, "unit": "µM"}, {"measurement": "TGI", "setting": "[7]", "result": 23.2, "unit": "µM"}, {"measurement": "GI50", "setting": "[8]", "result": 2.42, "unit": "µM"}, {"measurement": "TGI", "setting": "[8]", "result": 5.39, "unit": "µM"}, {"measurement": "GI50", "setting": "[9]", "result": 3.25, "unit": "µM"}, {"measurement": "TGI", "setting": "[9]", "result": 13.6, "unit": "µM"}, {"measurement": "GI50", "setting": "[10]", "result": 7.06, "unit": "µM"}, {"measurement": "TGI", "setting": "[10]", "result": 22.1, "unit": "µM"}]}, {"smiles": "COc1cc2cnc(-c3ccccc3)cc2cc1OC", "values": [{"measurement": "TGI", "setting": "[1]", "result": "> 100", "unit": "µM"}, {"measurement": "TGI", "setting": "[2]", "result": 53.8, "unit": "µM"}, {"measurement": "TGI", "setting": "[3]", "result": 78.3, "unit": "µM"}, {"measurement": "TGI", "setting": "[4]", "result": 60.4, "unit": "µM"}, {"measurement": "TGI", "setting": "[5]", "result": 50.7, "unit": "µM"}, {"measurement": "TGI", "setting": "[6]", "result": 85.6, "unit": "µM"}, {"measurement": "TGI", "setting": "[7]", "result": "> 100", "unit": "µM"}, {"measurement": "TGI", "setting": "[8]", "result": "> 100", "unit": "µM"}, {"measurement": "TGI", "setting": "[9]", "result": 22.2, "unit": "µM"}, {"measurement": "TGI", "setting": "[10]", "result": 53.3, "unit": "µM"}]}, {"smiles": "Nc1nccc2c1ccn2-c1cccc(NC(=O)c2ccc(N3CCOCC3)c(C(F)(F)F)c2)c1", "values": [{"measurement": "GI50", "setting": "[1]", "result": 0.905, "unit": "µM"}, {"measurement": "TGI", "setting": "[1]", "result": 2.58, "unit": "µM"}, {"measurement": "GI50", "setting": "[2]", "result": 0.34, "unit": "µM"}, {"measurement": "TGI", "setting": "[2]", "result": 2.43, "unit": "µM"}, {"measurement": "GI50", "setting": "[3]", "result": 0.233, "unit": "µM"}, {"measurement": "TGI", "setting": "[3]", "result": "> 39.4", "unit": "µM"}, {"measurement": "GI50", "setting": "[4]", "result": 0.634, "unit": "µM"}, {"measurement": "TGI", "setting": "[4]", "result": 16.7, "unit": "µM"}, {"measurement": "GI50", "setting": "[5]", "result": 1.7, "unit": "µM"}, {"measurement": "TGI", "setting": "[5]", "result": "> 22.8", "unit": "µM"}, {"measurement": "GI50", "setting": "[6]", "result": 0.318, "unit": "µM"}, {"measurement": "TGI", "setting": "[6]", "result": 1.41, "unit": "µM"}, {"measurement": "GI50", "setting": "[7]", "result": 1.84, "unit": "µM"}, {"measurement": "TGI", "setting": "[7]", "result": "> 50", "unit": "µM"}, {"measurement": "GI50", "setting": "[8]", "result": 0.213, "unit": "µM"}, {"measurement": "TGI", "setting": "[8]", "result": 0.876, "unit": "µM"}, {"measurement": "GI50", "setting": "[9]", "result": 1.91, "unit": "µM"}, {"measurement": "TGI", "setting": "[9]", "result": "> 50", "unit": "µM"}, {"measurement": "GI50", "setting": "[10]", "result": 2.08, "unit": "µM"}, {"measurement": "TGI", "setting": "[10]", "result": 31.1, "unit": "µM"}]}]}
